From ChEMBL document CHEMBL3862035, “In Silico Discovery and Validation of Amide Based Small Molecule Targeting the Enzymatic Site of Shiga Toxin” (J Med Chem, 2016)
Calls of active or inactive are those of the source. The rule behind the calls is not given here.

Columns and labels:
[1] = Cytotoxicity against African green monkey Vero cells incubated for 24 hrs by neutral red uptake assay; type: toxicity, cell-based; conditions: chlorocebus sabaeus; for MNTC at 24 h: read-out: MTD
[2] = Inhibition of Shigella dysenteriae type 2 Shiga toxin in African green monkey Vero cells assessed as inhibition of Stx-induced cytotoxicity incubated for 10 hrs by MTS/PMS assay; type: cell-based
[3] = molecular target: T1, Shiga toxin subunit A (Shigella dysenteriae) (UniProt Q9FBI2)
T1 sequence (whole entry): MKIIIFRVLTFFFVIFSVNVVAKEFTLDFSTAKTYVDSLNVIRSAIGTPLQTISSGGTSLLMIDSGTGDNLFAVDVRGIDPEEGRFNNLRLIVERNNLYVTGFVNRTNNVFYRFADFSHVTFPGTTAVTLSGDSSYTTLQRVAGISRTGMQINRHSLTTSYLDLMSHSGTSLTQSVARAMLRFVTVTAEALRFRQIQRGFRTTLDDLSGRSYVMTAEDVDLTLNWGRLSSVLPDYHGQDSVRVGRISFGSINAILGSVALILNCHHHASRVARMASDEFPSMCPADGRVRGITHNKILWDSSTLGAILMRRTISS

Mus musculus [4] = assay: Toxicity in Balb/c mouse at 2 mM, ip measured after 0 to 14 days; type: organism-based; conditions: in vivo, 2000 µM
Mus musculus [5] = assay: Inhibition of Shigella dysenteriae Shiga toxin-induced mortality in Balb/c mouse exposed to 5 x LD50 Shigella toxin assessed as increase in mouse survival at 2 mM, ip dosed 1 after toxin injection measured after 24 to 48 hrs; type: functional, organism-based
Mus musculus [6] = assay: Inhibition of Shigella dysenteriae Shiga toxin-induced mortality in Balb/c mouse exposed to 5 x LD50 Shigella toxin assessed as increase in mouse survival at 2 mM, ip dosed 1 hr before toxin injection measured after 24 to 48 hrs; type: functional, organism-based
Mus musculus [7] = assay: Inhibition of Shigella dysenteriae Shiga toxin-induced mortality in Balb/c mouse exposed to 5 x LD50 Shigella toxin assessed as increase in mouse survival at 2 mM, ip preincubated with Stx for 1 hr measured after 0 to 14 days; type: functional, organism-based
Mus musculus [8] = assay: Inhibition of Shigella dysenteriae Shiga toxin-induced mortality in Balb/c mouse exposed to 5 x LD50 Shigella toxin assessed as reduction in symptomatic effects of toxin at 2 mM, ip preincubated with Stx for 1 hr measured after 0 to 14 days; type: functional, organism-based

With `Nc1ncnc2nn[nH]c12` the MNTC at 24 h [1] was 18.7 µM.
With `Cc1ccsc1-c1cc(=O)c2ccccc2[nH]1` the MNTC at 24 h [1] was 5.33 µM.
Work on `Nc1nc(N)c2[nH]cnc2n1` [2,6-DIAMINOPURINE] yielded an MNTC at 24 h [1] of 9.3 µM.
For `c1ccc(SCCNCCN2CCCC2)cc1`, the MNTC at 24 h [1] was 63.3 µM and the IC50 [2] was 25 µM.
Compound `Nc1ncnc2c1ncn2[C@@H]1O[C@H](COP(=O)(O)O)[C@@H](O)[C@H]1O` [ADENOSINE PHOSPHATE] has an MNTC at 24 h [1] of 75 µM.
Work on `Nc1nc2[nH]cnc2c(=O)[nH]1` yielded a ΔTm [3] of 4.45 °C.
In the case of `O=C(/C=C\c1ccccc1)NCCO`, the MNTC at 24 h [1] is reported as 31.6 µM.
With `O=C1NC(=O)C2N=CNC2N1` (centres undefined) the MNTC at 24 h [1] was 9.3 µM.
With `Nc1ccncn1` the MNTC at 24 h [1] was 250 µM.
Work on `CCCCSCCNCCNP(=S)(OCC)OCC` yielded an MNTC at 24 h [1] of 32.3 µM and an IC50 [2] of 25 µM.
Work on `O=C(/C=C/c1cccs1)c1ccccc1O` yielded an MNTC at 24 h [1] of 17 µM.
With `Nc1nc2nc[nH]c2c(=O)[nH]1` [GUANINE] the CC50 at 24 h [1] was 136 µM, the MNTC at 24 h [1] was 125 µM and the Activity (Mus musculus [4]) was “Non-Toxic”.
`CC(=O)c1ccccc1NC(=O)c1ccc([N+](=O)[O-])cc1` gave an MNTC at 24 h [1] of 17.3 µM.
With `O=C(NCCNCCSc1ccccc1)c1ccc([N+](=O)[O-])cc1` the CC50 at 24 h [1] was 177 µM, the MNTC at 24 h [1] was 15 µM and the inhibition (Mus musculus [5]) was “Active”. For the same compound, the Activity (Mus musculus [4]) was “Non-Toxic”, the inhibition (Mus musculus [6]) was “Active” and the inhibition (Mus musculus [7]) was “Active”. The inhibition (Mus musculus [8]) was “Active”.
With `CCCSCCNCCNC(=O)c1ccc(Cl)cc1` the MNTC at 24 h [1] was 124 µM.
For `O=C(/C=C/c1ccccc1F)c1ccccc1O`, the MNTC at 24 h [1] was 5.67 µM.
Compound `S=C1N=CN=C2NC=NC12` (centres undefined) has an MNTC at 24 h [1] of 18.7 µM.
In the case of `O=C(/C=C/c1ccccc1)Nc1ccccc1O` [N-(2-HYDROXYPHENYL)CINNAMAMIDE], the MNTC at 24 h [1] is reported as 32 µM.
In the case of `CCCSCCNCCNC(=O)/C=C/c1ccccc1`, the CC50 at 24 h [1] is reported as 123 µM, the MNTC at 24 h [1] is reported as 38 µM and the inhibition (Mus musculus [5]) is reported as “Active”. For the same compound, the Activity (Mus musculus [4]) was “Non-Toxic”, the inhibition (Mus musculus [6]) was “Active” and the inhibition (Mus musculus [7]) was “Active”. For the same compound, the inhibition (Mus musculus [8]) was “Active”.
In the case of `O=c1cc(-c2ccccc2F)[nH]c2ccccc12`, the MNTC at 24 h [1] is reported as 5 µM.
With `O=C1NCN=C2NC=NC12` (centres undefined) the MNTC at 24 h [1] was 125 µM and the ΔTm [3] was 2.32 °C.
For `Cc1ncnc2nc[nH]c12`, the MNTC at 24 h [1] was 9.3 µM.
For `CC(=O)c1ccccc1NC(=O)c1ccccc1F`, the CC50 at 24 h [1] was 120 µM, the MNTC at 24 h [1] was 37 µM and the inhibition (Mus musculus [5]) was “Active”. For the same compound, the Activity (Mus musculus [4]) was “Non-Toxic”, the inhibition (Mus musculus [6]) was “Active” and the inhibition (Mus musculus [7]) was “Active”. For the same compound, the inhibition (Mus musculus [8]) was “Active”.
Compound `CC(=O)c1ccccc1NC(=O)c1ccc(F)cc1` has an MNTC at 24 h [1] of 10 µM.
Work on `Oc1cc(/C=C/c2ccccc2)nc2ccccc12` yielded an MNTC at 24 h [1] of 9.33 µM.
For `COc1ccc(/C=C/C(=O)c2ccccc2O)cc1`, the MNTC at 24 h [1] was 7.35 µM.
In the case of `O=C(NCCNCCSc1ccccc1)C1CCCCC1`, the MNTC at 24 h [1] is reported as 38 µM.
For `Oc1ncnc2[nH]ncc12` [ALLOPURINOL], the CC50 at 24 h [1] was 428 µM, the MNTC at 24 h [1] was 250 µM and the Activity (Mus musculus [4]) was “Non-Toxic”. It also gave a ΔTm [3] of 3.75 °C.
For `Nc1ncc2[nH]cnc2n1` [2-AMINOPURINE], the MNTC at 24 h [1] was 125 µM.
With `O=C(/C=C/c1ccccc1)Oc1c(-c2ccccc2)oc2ccccc2c1=O` the MNTC at 24 h [1] was 64 µM.
Compound `Nc1ncnc2c1ncn2[C@@H]1O[C@H](CO)[C@@H](O)[C@H]1O` [ADENOSINE] has an MNTC at 24 h [1] of 125 µM.
For `CC(=O)c1ccccc1NC(=O)/C=C\c1ccccc1`, the CC50 at 24 h [1] was 29.7 µM, the MNTC at 24 h [1] was 6.96 µM and the inhibition (Mus musculus [5]) was “Active”. For the same compound, the Activity (Mus musculus [4]) was “Non-Toxic”, the inhibition (Mus musculus [6]) was “Active” and the inhibition (Mus musculus [7]) was “Active”. The inhibition (Mus musculus [8]) was “Active”.
